Assay results: patent publication US8362090B2, “Methods and related compositions using specific flavonoids and indanes to reduce weight and inhibit lipase, α-amylase and α-glucosidase activity in mammals” (Gateway Health Alliances, Inc., priority 2007, dated 2013)

Key:
[1] = test system: α-glucosidase (G5003, from S. cerevisiae); experiment: α-Glucosidase assay (p-nitrophenyl-α-D-glucopyranoside); type: biochemical; details: tested at 0.28 mg/ml, mean n=3
Procedure: (§1) The purified compounds and extracts were made up 2 mg/ml solutions in water using initially a drop of DMSO if required for solubility.

[2] = molecular target: T1, porcine pancreatic amylase (Sus scrofa, UniProt P00690); experiment: Amylase assay (Sigma INFINITY reagent); type: biochemical, pig; details: tested at 0.12 mg/ml, mean n=3
T1 construct: purchased Sigma A6255
T1 sequence (P00690 16-511): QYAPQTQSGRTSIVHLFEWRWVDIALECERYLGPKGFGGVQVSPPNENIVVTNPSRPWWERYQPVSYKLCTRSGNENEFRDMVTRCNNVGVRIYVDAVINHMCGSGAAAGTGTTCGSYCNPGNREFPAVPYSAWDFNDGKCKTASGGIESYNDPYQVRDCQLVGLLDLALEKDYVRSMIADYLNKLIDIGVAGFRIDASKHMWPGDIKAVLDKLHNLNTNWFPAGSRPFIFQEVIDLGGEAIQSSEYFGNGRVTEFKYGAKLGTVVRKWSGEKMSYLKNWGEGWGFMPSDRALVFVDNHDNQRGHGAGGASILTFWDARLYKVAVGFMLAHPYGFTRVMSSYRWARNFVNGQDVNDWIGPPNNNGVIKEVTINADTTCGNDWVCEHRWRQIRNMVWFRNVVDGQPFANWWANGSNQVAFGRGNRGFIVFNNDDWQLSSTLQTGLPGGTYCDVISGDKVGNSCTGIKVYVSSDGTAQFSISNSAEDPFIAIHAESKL
Procedure: as §1
Sigma INFINITY Powder Reagent (Catalogue Number 568-20)
Sigma α-amylase (A6255, porcine pancreatic amylase as saline suspension), diluted to 35 units/ml. […] The rate of color formation was measured over five minutes, after which the final absorbance was measured at 405 nm as an endpoint recording.

Human pancreatic lipase = molecular target: T2, Human pancreatic lipase (Homo sapiens, UniProt P16233); experiment: Lipase assay (Sigma Lipase-PS Kit); type: biochemical; details: same top concentration (0.15 mg/ml)
T2 construct: purchased Sigma
T2 sequence (P16233 17-465): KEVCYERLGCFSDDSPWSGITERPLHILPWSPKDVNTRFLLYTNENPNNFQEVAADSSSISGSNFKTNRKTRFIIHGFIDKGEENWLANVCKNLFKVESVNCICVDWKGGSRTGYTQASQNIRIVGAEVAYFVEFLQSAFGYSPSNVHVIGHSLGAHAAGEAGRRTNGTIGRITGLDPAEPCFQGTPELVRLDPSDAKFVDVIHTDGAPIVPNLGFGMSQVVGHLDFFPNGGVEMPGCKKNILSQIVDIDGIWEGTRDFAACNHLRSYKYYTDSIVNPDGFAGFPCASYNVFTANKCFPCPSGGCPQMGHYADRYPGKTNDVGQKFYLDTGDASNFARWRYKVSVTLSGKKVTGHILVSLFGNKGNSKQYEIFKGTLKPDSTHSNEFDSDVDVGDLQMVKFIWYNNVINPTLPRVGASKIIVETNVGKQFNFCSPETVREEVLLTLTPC
T2 sequence (P02703 23-112 partner): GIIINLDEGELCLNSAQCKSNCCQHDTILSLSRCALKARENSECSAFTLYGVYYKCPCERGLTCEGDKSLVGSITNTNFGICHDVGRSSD
Procedure: as §1
Sigma Lipase-PS Kit (Catalogue Number 805-A)
Human pancreatic lipase was diluted 1.5:5 prior to use. […] Color formation was measured at 550 nm after 30 minutes.

Row | Compound | α-glucosidase inhibition (in words, FIG. 2) [1] | α-amylase inhibition (in words, FIG. 2) [2] | inhibition at 150 µg/mL (Human pancreatic lipase) [%]
1 | quercitrin-3-O″-acetate [compound 5] | promoted the glucosidase activity | inhibition to be restored | 
2 | CCCCCCCCCCC[C@@H](C[C@@H]1OC(=O)[C@H]1CCCCCC)OC(=O)[C@H](CC(C)C)NC=O [Orlistat] |  |  | ≤ 60
3 | Oc1ccc(/C=C2\c3cc(O)cc(O)c3C(c3ccc(O)cc3)C2c2cc(O)cc(O)c2)cc1 (stereo not drawn) [compound 6, parthenocissin A] |  | good inhibition | 
4 | Oc1ccc(C=C2c3c(O)cc(O)cc3C(c3ccc(O)cc3)C2c2cc(O)ccc2O)cc1 (stereo not drawn) [compound 7, 3-(4-hydroxybenzylidene)-2-(2,5-dihydroxyphenyl)-1-(4-hydroxyphenyl)indane-4,6-diol] | fairly specific as an inhibitor |  | 
5 | COc1cc(O)c2c(=O)c(O[C@@H]3O[C@@H](C)[C@H](O)[C@@H](O)[C@H]3O)c(-c3ccc(O)c(O)c3)oc2c1 [compound 3, rhamnitrin] |  | inhibition to be restored | 
